The values that follow come from patent publication US20240239805A1, “AZA-YANG CYCLIZATION-BUCHNER AROMATIC RING EXPANSION: COLLECTIVE SYNTHESIS OF CYCLOHEPTATRIENE-CONTAINING AZETIDINE LACTONES” (University of Kansas, priority 2022, published 2024).

The assay concerns U-2 OS (ATCC, HTB-96) cells. The assay is described as follows: Cell Painting: changes in cell morphology induced by synthesized compounds. Type of assay: cell-based. Particulars: U-2 OS cells, 24-hour treatment; for Determination of bioactives: reproducibility of fingerprints and magnitude of the activity: Cell Painting feature vectors vs DMSO, 3 repeats, FIG. 8; for Clustering of fingerprints (similarity of fingerprints) with known bioactives: Cell Painting, cosine similarity, FIG. 9. The procedure:
U-2 OS (ATCC, HTB-96) cells were cultured in T-75 flasks (Greiner, 658170) under McCoy's 5a medium (HIMedia, AT057), supplemented with 10% fetal bovine serum (FBS) and 1% Penicillin/Streptomycin solution, and incubated at 37° C. in a 5% CO2 atmosphere. Upon reaching 80% confluence, cells were washed, trypsinized (0.25% solution with EDTA, VWR, M143), and removed. Flasks were reseeded with one-fifth of the cell count for each passage. All cell plates reported in this paper were composed of U-2 OS from incubation lengths of five or fewer passages. 384 Black-welled plates with optically clear bottoms (Corning, 6569) were seeded with U-2 OS at a density of 1,000 cells per well and cells were allowed to incubate for 24 h to ensure adherence.
Three compound plates (Thermo Scientific, AB-1056) were constructed using an initial aliquot of a 50 mM compound solution solubilized in DMSO. Each compound aliquot was then twofold serially diluted in DMSO to yield eight concentrations ranging from 50 mM to 390 μM. This process was repeated so that compound plate 1 contained each of the 16 test (cycloheptatriene) compounds and one azetidinol, compound plate 2 contained 19 esters, and compound plate 3 contained the diazo compounds. Vehicle treatments were included in the plate design as DMSO-containing wells (around 200) with no added compound. Staurosporine diluted to 500 μM in DMSO was included on the plate as a positive control to test the transfer of compounds from pin transfer.
After a 24 h incubation period, untreated cell-containing plates and the compound plate were each fitted into a Library Copier, and a sterile Multi-Blot Replicator (V and P Scientific) was used to transfer a 100 nL volume from each well of the 384 well compound plate into the culture media (50 μL) of a corresponding well on the 384 well cell plate. These cell plates were reintroduced to a 37° C., 5% CO2 atmosphere for the duration of the 24-hour treatment period.
1 L of Hank's Buffered Saline Solution (HBSS) (1× from 10×) was prepared using 100 mL HBSS (10×) and diluted with 900 mL deionized water. The pH of the solution was adjusted to 7.2 with aqueous NaOH and filtered through a 0.2-micron filter. A 1% w/v solution of BSA (VWR, 0332) was prepared in 1×HBSS using 150 mg BSA, dissolved in 15 mL HBSS. The solution was filtered through a 0.2-micron filter. Live-cell MitoTracker (Thermo Fisher, M22426) staining solution was prepared using 6.5 μL of MitoTracker staining solution from a stock of 1 mM MitoTracker and dissolved in 13 mL of pre-warmed cell culture medium (RPMI) for a final concentration of 500 nM.
Staining dyes: a. […]

Turning to `CC(C)(C)OC(=O)n1cc(C23C=CC=CC=C2[C@@]2(CN4CCCC[C@H]42)OC3=O)c2ccccc21` (stereo partly shown) [Compound 1-1-3], the “Determination of bioactives: reproducibility of fingerprints and magnitude of the activity” value is “showed reproducible fingerprints and magnitude of the activity”.

`O=C1O[C@]2(CN3CCCC[C@H]32)C2=CC=CC=C[C@@]12c1ccsc1` [Compound 1-1-4]: the “Determination of bioactives: reproducibility of fingerprints and magnitude of the activity” value was “showed reproducible fingerprints and magnitude of the activity”.

Regarding `CC(=O)O[C@H]1C(=O)[C@@]2(C)[C@H]([C@H](OC(=O)c3ccccc3)[C@]3(O)C[C@H](OC(=O)[C@H](O)[C@@H](NC(=O)c4ccccc4)c4ccccc4)C(C)=C1C3(C)C)[C@]1(OC(C)=O)CO[C@@H]1C[C@@H]2O` [taxol], the “Clustering of fingerprints (similarity of fingerprints) with known bioactives” value is on record as “cluster together”. Still for that read-out and setting: in the case of `CC[C@]1(O)C[C@H]2CN(CCc3c([nH]c4ccccc34)[C@@](C(=O)OC)(c3cc4c(cc3OC)N(C=O)[C@H]3[C@@](O)(C(=O)OC)[C@H](OC(C)=O)[C@]5(CC)C=CCN6CC[C@]43[C@@H]65)C2)C1` [vincristine] it was “cluster together”.
